Like-named read-outs stand apart in the source and are kept apart here.
How the values were obtained:
[1] = system: Acetylcholine-Induced Writhing; assay: Analgesic Activity by Acetylcholine-Induced Writhing Method in Mice; assay type: in vivo, male SLC-ICR mice; settings: Mus musculus, oral, 60 minutes before acetylcholine
Experimental: (§1) Following the method of C. A. Winter, et al. (J. Pharmac. Exp., Ther., 141, 369 (1963)), in male Donryu rats weighing 130 ± 10 g., two sterilized cotton pellets weighing 35 ± 1 mg. respectively were embedded subcutaneously at the lateral abdomen aseptically. Thereafter, the compounds were administered orally. Beginning the next day, the compounds were administered orally at 9:00 a.m. and 4:00 p.m. for 3 days. The day after final administration, the pellets were removed, dried and weighed to determine the weight of the granuloma formed around the pellets. Inhibitory percentage was calculated as follows: [formula] (f) Analgesic Activity by Acetylcholine-Induced Writhing Method in Mice
Following the method of S. S. Adams (Arch. Int. Pharmacodyn., 178, 115 (1969)), in male SLC-ICR mice weighing 20 ± 1 g., the writhing response was caused by the intraperitoneal injection of 0.1 ml. / 10 g. body weight of 7.5 mg. / kg. acetylcholine dissolved in physiological saline. The test compounds were administered orally 60 minutes before the acetylcholine injection, after which the frequency of response was counted in each animal for 8 minutes. Inhibitory percentage was calculated as follows. [formula] Note; Compound A: 2-[4-(2-methyl-3-oxobutyl)phenyl]propionic acid, […]

Granuloma Formation [2] = assay: Inhibition of Granuloma Formation by Cotton Pellet Method; assay type: in vivo, male Donryu rats; settings: Rattus norvegicus, 72 h; rats, oral, twice daily for 3 days
Experimental: (§2) (e) Inhibition of Granuloma Formation by Cotton Pellet Method
as §1, with “A. Winter, et al. (J. Pharmac. Exp., Ther., 141, 369 (1963)), in male Donryu rats weighing 130 ± 10 g., two sterilized cotton pellets weighing 35 ± 1 mg. respectively were embedded subcutaneously at the lateral abdomen aseptically.” left out

[3] = as above; assay type: in vivo, male Donryu rats; settings: rat, in vivo; rats, oral; ratio of LD50 to ED20; read-out: LD50/ED20, Cotton Pellet Method (safety margin)
Experimental: as §2
as §1, with “A. Winter, et al. (J. Pharmac. Exp., Ther., 141, 369 (1963)), in male Donryu rats weighing 130 ± 10 g., two sterilized cotton pellets weighing 35 ± 1 mg. respectively were embedded subcutaneously at the lateral abdomen aseptically.” left out

[4] = system: Intraperitoneal Dye Leakage; assay: Inhibition of Intraperitoneal Dye Leakage; assay type: in vivo, male Donryu rats; settings: Rattus norvegicus, 0.75 h, rats, oral
Experimental: (§3) Inhibitory percentage was calculated as follows. [formula] (b) Inhibition of Intraperitoneal Dye Leakage
(§4) Five minutes thereafter, 0.2 ml. / 100 g. body weight of 3% acetic acid was injected intraperitoneally. The dye in the peritoneal exudation, sampled 45 minutes after the acetic acid injection, was subjected to the spectro-photometric estimation at 620 mμ. Inhibitory percentage was calculated as follows. [formula]

[5] = Inhibition of Intraperitoneal Dye Leakage; assay type: in vivo, male Donryu rats; settings: rat, in vivo; rats, oral; ratio of LD50 to ED30; read-out: LD50/ED30, Intraperitoneal Dye Leakage (safety margin)
Experimental: as §3, §4

[6] = system: Carrageenin-Induced Paw Edema; assay: Inhibition of Carrageenin-Induced Paw Edema; assay type: in vivo, male Donryu rats; settings: Rattus norvegicus, rats, oral; for ED40: 3 h
Experimental: (§5) (a) Inhibition of Carrageenin-Induced Paw Edema
(§6) Following the method of C. […] The volume of the paw was measured before and 3 hours after the carrageenin injection. The swelling index of the inflamed paw was calculated as follows. [formula]
as §3

[7] = Inhibition of Carrageenin-Induced Paw Edema; assay type: in vivo, male Donryu rats; settings: rat, in vivo; rats, oral; ratio of LD50 to ED40; read-out: LD50/ED40, Carrageenin-Induced Paw Edema (safety margin)
Experimental: as §5, §6, §3

in vivo = settings: rats, oral, 7-day observation
Experimental: (§7) Thereafter, the compounds were administered orally. Beginning the next day, the compounds were administered orally at 9:00 a.m. and 4:00 p.m. for 6 days. The day after final administration, the granuloma pouches were removed and weighed. Inhibitory percentage was calculated as follows: [formula] (d) Acute Toxicity
The compounds were administered orally in male Wistar rats weighing 200 ± 10 g. The rats were observed over a 7-day period.

Granuloma Formation [8] = assay: Inhibition of Granuloma Formation by Granuloma Pouch Method; assay type: in vivo, male Wistar rats; settings: Rattus norvegicus, 144 h; for ED20: read-out: ED20, Inhibition of Granuloma Formation by Granuloma Pouch Method
Experimental: (§8) (c) Inhibition of Granuloma Formation by Gramuloma Pouch Method
as §7

[9] = as above; assay type: in vivo, male Wistar rats; settings: rat, in vivo; rats, oral; ratio of LD50 to ED20; read-out: LD50/ED20, Granuloma Pouch Method (safety margin)
Experimental: as §8, §7

[10] = po, read-out: Inhibition of Granuloma Formation by Granuloma Pouch Method, Inhibition (%)

| Compound | ED50 [1] [mg/kg] | ED20 (Granuloma Formation [2]) [mg/kg] | ED30 [4] [mg/kg] | inhibition at 0.5 mg/kg ([4]; 45 minutes after acetic acid) [%] | ED40 [6] [mg/kg] | inhibition at 2 mg/kg ([6]; 3 hours after carrageenin) [%] | Acute Toxicity, Died/Treated (in vivo; 125 mg/kg) | ED20 (Granuloma Formation [8]; po) [mg/kg] | inhibition at 2 mg/kg ([4]; 45 minutes after acetic acid) [%] | inhibition at 3 mg/kg ([6]; 3 hours after carrageenin) [%] | Acute Toxicity, Died/Treated (in vivo; 250 mg/kg) | also measured |
| --- | --- | --- | --- | --- | --- | --- | --- | --- | --- | --- | --- | --- |
| CCC(Cc1ccc(C(C)C(=O)O)cc1)C(C)O (centres unmarked) [Compound D, 2-[4-(2-ethyl-3-hydroxybutyl)phenyl]propionic acid] | 2.7 | 0.33 | 0.31 | 34.4 | 2.5 | 38.1 | 3/8 | 0.73 | – | – | – | selectivity ratio [3]: 400; selectivity ratio [5]: 426; selectivity ratio [7]: 52.8; LD50 at 168 h (in vivo; rat, in vivo, read-out: Acute Toxicity LD50): 132 mg/kg; inhibition at 1 mg/kg (Granuloma Formation [8]; [10]): 23.5%; selectivity ratio [9]: 181 |
| CC(=O)C(C)Cc1ccc(C(C)C(=O)O)cc1 (centres unmarked) [Compound A, 2-[4-(2-methyl-3-oxobutyl)phenyl]propionic acid] | – | – | – | – | – | – | – | – | 30.6 | 31.7 | 1/8 | inhibition at 8 mg/kg (Granuloma Formation [8]; rats, oral, 8 mg/kg, twice daily for 6 days): 22.3% |
| CC(C(=O)O)c1ccc(CC(C)C(C)O)cc1 (centres unmarked) [Compound B, 2-[4-(2-methyl-3-hydroxybutyl)phenyl]propionic acid] | – | – | – | – | – | – | – | – | 35.3 | 34.9 | 1/8 | inhibition at 6 mg/kg (Granuloma Formation [8]; rats, oral, 6 mg/kg, twice daily for 6 days): 24.2% |
| CCC(Cc1ccc(C(C)C(=O)O)cc1)C(C)=O (centres unmarked) [Compound C, 2-[4-(2-ethyl-3-oxobutyl)phenyl]propionic acid] | – | – | – | 28.2 | – | 35.2 | 2/8 | – | – | – | – | inhibition at 1 mg/kg (Granuloma Formation [8]; rats, oral, 1 mg/kg, twice daily for 6 days, read-out: Inhibition of Granuloma Formation by Granuloma Pouch Method, Inhibition (%)): 22.7% |
| CC(C)Cc1ccc(C(C)C(=O)O)cc1 (centres unmarked) [Ibuprofen, reference compound] | 4.7 | 22 | 17 | – | 16 | – | – | 42 | – | – | – | inhibition at 10 mg/kg ([4]; 10 mg/kg, 45 minutes after acetic acid): 17.8%; inhibition at 10 mg/kg ([6]; 10 mg/kg, 3 hours after carrageenin): 31.2%; Acute Toxicity, Died/Treated (in vivo; 625 mg/kg): 3/8; inhibition at 50 mg/kg (Granuloma Formation [8]; [10]): 21.1% |

Reference: patent publication US4092350A, “Alkanoic acid, process for its production and method of use thereof” (priority 1975, dated 1978)
